Measurements reported in publication PMC10517971, “An inverse agonist of orphan receptor GPR61 acts by a G protein-competitive allosteric mechanism” (Nature Communications, 2023).
Like-named read-outs stand apart in the source and are kept apart here.

Target: T1, human GABAA receptor (α1β2γ2) (Homo sapiens, UniProt P14867+P18507+P47870)
T1 construct: expressed in transfected cells
Experiment: GABA Patch Clamp Assay (agonist, antagonist, PAM modes)
Assay type: cell-based
Text: 151 GABA Patch Clamp Assay
152 Compound effects on the human GABAA recepto r (α1β2γ2), stably express ed in human embryonic
153 kidney (HEK) cells, were examined in three modes of action: agonist, antagonist and positive
154 allosteric modulation (PAM) modes. Chloride currents evoked by the activation of the GABAA
155 recepto r wer e reco rded in the whole- cell patch clamp configuration with the automated Qube384®
156 platform (Sophion Bioscience A/S, Baltorpvej, Denmark). The intracellular solution contained (in
157 mM): CsF 90, CsCl 50, MgCl2 2 EGTA 10, HEPES 10, pH adjusted to 7.2 with CsOH. The
158 extracellular solution contained (in mM): NaCl 138, KCl 5.3, CaCl2 5, MgCl2 0.49, HEPES 10,
160 osmolarity of the internal and external solutions were adjusted with sucrose to 300 mOsm and 305
162 Compounds were dissolved and initially diluted in dimethyl sulfoxide (DMSO), with a final
163 dilution in external sol ution to generate final working concent rations. The final DMSO
164 concentration in all experiments was 0.33% (v/v).
165 Cells and solutions were loaded into the Qube384 10X Qchip (10 recording wells per well, 384
166 wells per QChip). After whole-cell con figuration was achiev ed by negativ e pressure pulse, cells
167 were maintained at a holding potential of - 80 mV throughout the experiment. To avoid
168 desensitization and current rundown due to persistent activation of GABAA, a “stacked pipette”
169 approach was utilized to ensure only a brief exposure of the cells to GABA-containing solutions.
170 In this approach, the perfusion pipettes drew from two liquid sources, first from extracellular
171 solution (14 µL), and next from a GABA-containing solution (7 µL). When dispensed into the
173 extracellular solution. At the start of the experiment, a baseline GABAA cu rrent was established
174 for each well in response to activation by 40 µM GABA. Each subsequent test condition was
175 normalized ag ainst this baseline GABA cu rrent on a per w ell basis.
176 Agonist effects were measured by recording the current evoked by the test article in the absen ce
177 of GABA. Agonism (%) was calculated relative to the current produced by 40 µM GABA for
178 each well: [% Agonism = (Itest article / I 40µM GABA) * 100%].
179 Antagonist effects of test article were examined i n the presence of 40 µM GABA following a 4
180 min incubation in test article. Antagonism was calculated relative to the current produced by 40 […]
182 allosteric modulation (%) by test article was detected when current was enhanced relative to the […]
184 EC50/ IC 50 values were calculated by fitting concentration response curve data to a 4- p aram eter […]
190 determined using a four-parameter logistic fit. […]
193 response. An apparent KB value for antagonist activity was calculated using the following […]

T1 sequence (P14867 28-456): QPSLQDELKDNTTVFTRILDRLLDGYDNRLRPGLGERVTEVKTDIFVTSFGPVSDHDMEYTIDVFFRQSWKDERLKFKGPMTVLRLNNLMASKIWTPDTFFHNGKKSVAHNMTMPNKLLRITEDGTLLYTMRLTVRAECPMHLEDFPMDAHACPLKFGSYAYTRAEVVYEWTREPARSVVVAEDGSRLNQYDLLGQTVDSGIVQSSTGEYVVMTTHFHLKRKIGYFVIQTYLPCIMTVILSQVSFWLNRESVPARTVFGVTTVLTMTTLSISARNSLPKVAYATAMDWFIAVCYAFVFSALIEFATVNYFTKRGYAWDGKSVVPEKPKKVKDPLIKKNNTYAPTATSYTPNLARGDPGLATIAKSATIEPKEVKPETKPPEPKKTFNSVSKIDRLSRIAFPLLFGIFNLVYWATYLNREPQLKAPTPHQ
T1 sequence (P47870 25-512 limits assumed): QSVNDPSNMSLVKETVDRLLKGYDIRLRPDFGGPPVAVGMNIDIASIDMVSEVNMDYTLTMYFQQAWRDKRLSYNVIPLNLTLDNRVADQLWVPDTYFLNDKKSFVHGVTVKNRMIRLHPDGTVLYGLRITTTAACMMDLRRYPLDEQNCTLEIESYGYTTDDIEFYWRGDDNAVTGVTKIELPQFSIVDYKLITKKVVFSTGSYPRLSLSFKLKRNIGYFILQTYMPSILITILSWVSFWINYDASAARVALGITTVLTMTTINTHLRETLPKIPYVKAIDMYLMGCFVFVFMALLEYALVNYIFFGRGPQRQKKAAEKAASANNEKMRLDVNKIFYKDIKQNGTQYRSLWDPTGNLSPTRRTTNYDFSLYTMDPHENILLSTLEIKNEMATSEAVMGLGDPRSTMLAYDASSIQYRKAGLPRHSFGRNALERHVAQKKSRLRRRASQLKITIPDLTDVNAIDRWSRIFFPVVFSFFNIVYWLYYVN
T1 sequence (P18507 40-475): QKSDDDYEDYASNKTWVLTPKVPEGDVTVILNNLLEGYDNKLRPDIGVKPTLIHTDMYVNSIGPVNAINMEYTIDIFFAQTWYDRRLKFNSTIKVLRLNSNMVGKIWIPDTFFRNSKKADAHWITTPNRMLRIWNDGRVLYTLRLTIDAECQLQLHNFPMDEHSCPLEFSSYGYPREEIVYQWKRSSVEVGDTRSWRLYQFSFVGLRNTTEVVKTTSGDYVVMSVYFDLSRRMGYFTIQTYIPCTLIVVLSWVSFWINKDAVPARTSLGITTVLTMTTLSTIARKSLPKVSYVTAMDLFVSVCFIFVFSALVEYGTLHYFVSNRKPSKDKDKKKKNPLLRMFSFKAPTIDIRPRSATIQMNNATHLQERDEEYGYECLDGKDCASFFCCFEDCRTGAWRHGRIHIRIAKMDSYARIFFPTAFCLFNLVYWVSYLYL

CCOc1cc(C)nc(N(CCOC)S(=O)(=O)c2ccc(NCc3c(F)cncc3F)nc2OC)n1 [Compound 1]
EC50: > 100 µM | %Activation@10μM (GABAa, 10μM): 0% | inhibition at 10 µM (GABAa, 10μM): 4% | EC50 (read-out: PAM EC50, GABAa, positive allosteric modulation mode): > 100 µM
